System: A. baumannii ATCC 17978
Assay: Antimicrobial susceptibility testing: 50% growth inhibitory concentration (IC50) determination in Iso-Sensitest broth
Assay type: cell-based
Conditions: Acinetobacter baumannii; A. baumannii strain ATCC17978; Iso-Sensitest medium; OD 600 nm over 16 h; 35±2° C.; read-out: IC50 ATCC17978 (50% growth inhibition concentration)
Protocol: Antimicrobial Susceptibility Testing: 50% Growth Inhibitory Concentration (IC50) Determination The in vitro antimicrobial activity of the compounds was alternatively determined according to the following procedure: The assay used a 10-points Iso-Sensitest broth medium to measure quantitatively the in vitro activity of the compounds against A. baumannii ATCC 17978. Stock compounds in DMSO were serially twofold diluted (e.g. range from 10 to 0.02 μM final concentration) in 384 wells microtiter plates and inoculated with 49 μl the bacterial suspension in Iso-Sensitest medium to have a final cell concentration of ˜5×10^(5) CFU/ml in a final volume/well of […] Microtiter plates were incubated at 35±2° C. Bacterial cell growth was determined by the measurement of optical density at λ=600 nm each 20 minutes over a time course of 16 h. Growth inhibition was calculated during the logarithmic growth of the bacterial cells by determination of the concentration inhibiting 50% (IC50) and 90% (IC90) of the growth. Table 1 provides the 50% growth inhibitory concentrations (IC50) in micromoles per liter of the compounds of present invention obtained against the A. baumannnii strain ATCC17978.

Structure (SMILES) | IC50 [nM]
CC(=O)NS(=O)(=O)c1ccc(-c2ccc(F)c3c2CNC(=O)[C@H](Cc2c[nH]c4ccccc24)N(C)C(=O)[C@H](CCCCN)NC(=O)[C@H](CCCN)NCc2cccnc2S3)cc1 [Example 7.02, N-[4-[(11S,14S,17S)-14-(4-aminobutyl)-11-(3-aminopropyl)-25-fluoro-17-(1H-indol-3-ylmethyl)-16-methyl-12,15,18-trioxo-2-thia-4,10,13,16,19-pentazatricyclo[19.4.0.03,8]pentacosa-1(25),3(8),4,6,21,23-hexaen-22-yl]phenyl]sulfonylacetamide] | 30
CN1C(=O)[C@H](CCCCNCC(F)F)NC(=O)[C@H](CCCN)NCc2cccnc2Sc2c(Cl)ccc(-c3cnc(O)nc3)c2CNC(=O)[C@@H]1Cc1c[nH]c2ccccc12 [Example 19.00, (11S,14S,17S)-11-(3-Aminopropyl)-25-chloro-14-[4-(2,2-difluoroethylamino)butyl]-22-(2-hydroxypyrimidin-5-yl)-17-(1H-indol-3-ylmethyl)-16-methyl-2-thia-4,10,13,16,19-pentazatricyclo[19.4.0.03,8]pentacosa-1(21),3,5,7,22,24-hexaene-12,15,18-trione] | 300
CN1C(=O)[C@H](CCCCN)NC(=O)[C@H](CCCN)NCc2cccnc2Sc2c(Cl)ccc(-c3ccc(P(=O)(O)O)cc3)c2CNC(=O)[C@@H]1Cc1c[nH]c2ccccc12 [Example 10.02, [4-[(11S,14S,17S)-14-(4-aminobutyl)-11-(3-aminopropyl)-25-chloro-17-(1H-indol-3-ylmethyl)-16-methyl-12,15,18-trioxo-2-thia-4,10,13,16,19-pentazatricyclo[19.4.0.03,8]pentacosa-1(21),3,5,7,22,24-hexaen-22-yl]phenyl]phosphonic acid] | 150
CN1C(=O)[C@H](CCCCN)NC(=O)[C@H](CCC(N)=O)NCc2cccnc2Sc2c(Cl)ccc(-c3ccc(P(=O)(O)O)cc3)c2CNC(=O)[C@@H]1Cc1c[nH]c2ccccc12 [Example 10.01, [4-[(11S,14S,17S)-14-(4-aminobutyl)-11-(3-amino-3-oxo-propyl)-25-chloro-17-(1H-indol-3-ylmethyl)-16-methyl-12,15,18-trioxo-2-thia-4,10,13,16,19-pentazatricyclo[19.4.0.03,8]pentacosa-1(21),3,5,7,22,24-hexaen-22-yl]phenyl]phosphonic acid] | 3030
CN1C(=O)[C@H](CCCN)NC(=O)[C@H](CCN)NCc2cccnc2Sc2c(Cl)ccc(-c3ccc(S(=O)(=O)O)cc3)c2CNC(=O)[C@@H]1Cc1c[nH]c2ccccc12 [Example 13.00, 4-[(11S,14S,17S)-11-(2-Aminoethyl)-14-(3-aminopropyl)-25-chloro-17-(1H-indol-3-ylmethyl)-16-methyl-12,15,18-trioxo-2-thia-4,10,13,16,19-pentazatricyclo[19.4.0.03,8]pentacosa-1(25), 3(8),4,6,21,23-hexaen-22-yl]benzenesulfonic acid] | 20
COc1ccc(-c2ccc(-c3nnn[nH]3)cc2)c2c1Sc1ncccc1CN[C@@H](CCCN)C(=O)N[C@@H](CCCCN)C(=O)N(C)[C@@H](Cc1c[nH]c3ccccc13)C(=O)NC2 [Example 15.01, (11S,14S,17S)-14-(4-Aminobutyl)-1-(3-aminopropyl)-17-(1H-indol-3-ylmethyl)-25-methoxy-16-methyl-22-[4-(1H-tetrazol-5-yl)phenyl]-2-thia-4,10,13,16,19-pentazatricyclo[19.4.0.03,8]pentacosa-1(25), 3(8),4,6,21,23-hexaene-12,15,18-trione] | 40
CN1C(=O)[C@H](CCCCN)NC(=O)[C@H](CCCN)NCc2cccnc2Sc2c(Cl)ccc(-c3ccc(S(=O)(=O)O)cc3)c2CNC(=O)[C@@H]1Cc1c[nH]c2ccccc12 [Example 1.00, 4-[(11S,14S,17S)-14-(4-Aminobutyl)-11-(3-aminopropyl)-25-chloro-17-(1H-indol-3-ylmethyl)-16-methyl-12,15,18-trioxo-2-thia-4,10,13,16,19-pentazatricyclo[19.4.0.03,8]pentacosa-1(25),3,5,7,21,23-hexaen-22-yl]benzenesulfonic acid] | 20
CN1C(=O)[C@H](CCCN)NC(=O)[C@H](CCCN)NCc2cccnc2Sc2c(Cl)ccc(-c3ccc(-c4nnn[nH]4)cc3)c2CNC(=O)[C@@H]1Cc1c[nH]c2ccccc12 [Example 8.01, (11S,14S,17S)-11,14-bis(3-aminopropyl)-25-chloro-17-(1H-indol-3-ylmethyl)-16-methyl-22-[4-(1H-tetrazol-5-yl)phenyl]-2-thia-4,10,13,16,19-pentazatricyclo[19.4.0.03,8]pentacosa-1(21),3,5,7,22,24-hexaene-12,15,18-trione] | 20
CN1C(=O)[C@H](CCCCN)NC(=O)[C@H](CCCN)NCc2cccnc2Sc2c(Cl)ccc(-c3ccc(-c4nsc(=O)[nH]4)cc3)c2CNC(=O)[C@@H]1Cc1c[nH]c2ccccc12 [Example 3.00, (11S,14S,17S)-14-(4-Aminobutyl)-11-(3-aminopropyl)-25-chloro-17-(1H-indol-3-ylmethyl)-16-methyl-22-[4-(5-oxo-4H-1,2,4-thiadiazol-3-yl)phenyl]-2-thia-4,10,13,16,19-pentazatricyclo[19.4.0.03,8]pentacosa-1(25), 3(8),4,6,21,23-hexaene-12,15,18-trione] | 80
CC(=O)NS(=O)(=O)c1ccc(-c2ccc(Cl)c3c2CNC(=O)[C@H](Cc2c[nH]c4ccccc24)N(C)C(=O)[C@H](CCCCN)NC(=O)[C@H](CCCO)NCc2cccnc2S3)cc1 [Example 16.00, N-[4-[(11S,14S,7S)-14-(4-aminobutyl)-25-chloro-11-(3-hydroxypropyl)-17-(1H-indol-3-ylmethyl)-16-methyl-12,15,18-trioxo-2-thia-4,10,13,16,19-pentazatricyclo[19.4.0.03,8]pentacosa-1(21),3,5,7,22,24-hexaen-22-yl]phenyl]sulfonylacetamide] | 310
CN1C(=O)[C@H](CCCN)NC(=O)[C@H](CCCN)NCc2cccnc2Sc2c(F)ccc(-c3ccc(P(=O)(O)O)cc3)c2CNC(=O)[C@@H]1Cc1c[nH]c2ccccc12 [Example 10.00, [4-[(11S,14S,17S)-11,14-Bis(3-aminopropyl)-25-fluoro-17-(1H-indol-3-ylmethyl)-16-methyl-12,15,18-trioxo-2-thia-4,10,13,16,19-pentazatricyclo[19.4.0.03,8]pentacosa-1(25), 3(8),4,6,21,23-hexaen-22-yl]phenyl]phosphonic acid] | 620
CN1C(=O)[C@H](CCCN)NC(=O)[C@H](CCCN)NCc2cccnc2Sc2c(Cl)ccc(-c3ccc(S(=O)(=O)O)cc3)c2CNC(=O)[C@@H]1Cc1c[nH]c2ccccc12 [Example 8.00, 4-[(11S,14S,17S)-11,14-Bis(3-aminopropyl)-25-chloro-17-(1H-indol-3-ylmethyl)-16-methyl-12,15,18-trioxo-2-thia-4,10,13,16,19-pentazatricyclo[19.4.0.03,8]pentacosa-1(21),3,5,7,22,24-hexaen-22-yl]benzenesulfonic acid] | 20
CN1C(=O)[C@H](CCCN)NC(=O)[C@H](CCCN)NCc2cccnc2Sc2c(F)ccc(-c3ccc(S(=O)(=O)O)cc3)c2CNC(=O)[C@@H]1Cc1c[nH]c2ccccc12 [Example 9.00, 4-[(11S,14S,17S)-11,14-Bis(3-aminopropyl)-25-fluoro-17-(1H-indol-3-ylmethyl)-16-methyl-12,15,18-trioxo-2-thia-4,10,13,16,19-pentazatricyclo[19.4.0.03,8]pentacosa-1(25), 3(8),4,6,21,23-hexaen-22-yl]benzenesulfonic acid] | 20
